In paper PMC12189671, “Antioxidant Activity and Cytotoxicity Evaluation of New Catechol Hydrazinyl-Thiazole Derivatives as Potential Protectors in Retinal Degenerative Processes” (Antioxidants, 2025):

Assays:
[1] = DPPH radical scavenging assay; settings: for IC50: 30 min incubation, λ = 517 nm
Procedure: The DPPH^• radical scavenging assay is based on transferring a hydrogen atom from the tested compounds to the violet stable free radical DPPH^• (2,2-diphenyl-1-picrylhydrazyl radical), converting it into a yellow compound. The assay was conducted using tested compounds and references in concentrations ranging from 2 to 50 µM, according to our adaptation of the protocol of Brand-Williams et al.. The absorbance of the samples is given by the remaining unreacted reagent radical, and it is inversely proportional to the amount of DPPH^• neutralized. The absorbance of the samples was measured at λ = 517 nm after 30 min of incubation in the dark at room temperature. The DPPH^• radical scavenging activity of the compounds was calculated using Equation (1):(1) DPPH^• scavenging (%)=control absorbance−sample absorbance/control absorbance×100

[2] = Cell viability (resazurin) on ARPE-19; format: cell-based, human; settings: human, ARPE-19 cells; for IC50 at 24 h: ARPE-19, 24 h, read-out: 24 h Exposure IC50 (cytotoxicity); for IC50 at 48 h: ARPE-19, 48 h, read-out: 48 h Exposure IC50 (cytotoxicity)
Description: (§1) The ARPE-19 cell line was purchased from CLS Cell Lines Service GmbH (Eppelheim, Germany) and cultured in Dulbecco’s modified Eagle’s medium/F-12 (HAM) 1:1 (Biological Industries, Beit, Israel). The medium was supplemented with 10% fetal bovine serum (FBS) (Thermo Fisher Scientific, Waltham, MA, USA) and 1% penicillin-streptomycin (Biosera, Cholet, France). The cancerous cell line A549 was purchased from ATCC (Manassas, VA, USA) and cultivated in high-glucose Dulbecco’s modified Eagle’s medium (DMEM 4.5 g/L). The normal BJ cell line was also purchased from ATCC (Manassas, VA, USA) and was cultivated in low-glucose Dulbecco’s modified Eagle’s medium (DMEM 1 g/L). The media was supplemented in both cases with 10% FBS. Cells were cultured in T75 flasks and incubated at 37 °C in a humidified incubator with 5% CO2 supplementation. For maintenance, the media was changed every 2–3 days, and when the confluence of the flask reached approximately 85%, the cells were either subcultured or further used in the experiments.
(§2) ARPE-19 cells were seeded at a density of 2 × 10^4 cells/well and 1 × 10^4 cells/well (suspended in 100 µL) in 96-well plates for 24 h and 48 h, respectively. For the BJ cells, the seeding density was 0.5 × 10^4 cells/well and 0.3 × 10^4 cells/well for 24 h and 48 h, respectively, and for the A549 cells, 1.5 × 10^4 cells/well for 24 h and 0.75 × 10^4 cells/well for 48 h. As cells have different sizes and volumes, the different seeding densities were selected to reach a confluency of 80–90% by the end of the experiments. Cells were further exposed to the synthesized compounds for 24/48 h at concentrations ranging from 12.5 to 500 µM. After the incubation period, the exposure media was removed, the cells were washed with PBS, and further incubated with a 200 µM resazurin solution for 3 h as described in our previous report. The conversion of resazurin to the fluorescent resorufin compound by viable cells was measured at λexcitation = 550; λemission = 600, using SpectraMax iD3 (Molecular Devices, San Jose, CA, USA). The experiments were conducted in biological triplicate, each with a minimum of 3 technical replicates. The measured viability was expressed as relative values to the control (cells exposed only to the vehicle–culture medium containing 0.4% DMSO).

ARPE-19 cells = experiment: Cell viability (resazurin) on ARPE-19; format: cell-based, human; settings: ARPE-19, up to 50 µM
Description: as §1, §2

[3] = Ferrous ions chelation assay (ferrozine)
Procedure: Solutions of the tested compounds or ethylenediaminetetraacetic acid disodium salt (EDTA-Na2), used as a positive control, were thoroughly mixed with 0.5 mL of FeSO4 (0.125 mM) and 0.5 mL of ferrozine (0.315 mM). After a 10-min incubation in the dark at room temperature, the absorbance was measured at λ = 562 nm.

[4] = Total Antioxidant Capacity (TAC) assay; settings: molar equivalents of reference compound
Procedure: The results of the evaluation of the electron ability transfer of the tested compound were expressed as molar equivalents of the reference compound per one mol of the tested compound using the formula: % of control activity=sample absorbance/reference absorbance×100 The Total Antioxidant Capacity (TAC) assay operates on the principle of reducing molybdenum (VI) to molybdenum (V) by the antioxidants being assessed, resulting in the formation of a blue-green complex. This assay was performed following the methodology detailed in our previous publication, which was based on initial reports from the literature. […] These were then incubated in a water bath at 95 °C for 90 min. After cooling to room temperature, 1 mL of each solution was diluted with 1 mL of water. The absorbance of the solutions was subsequently measured at λ = 695 nm.

[5] = Reducing Power (RP) assay; settings: molar equivalents of reference compound
Description: The results of the evaluation of the electron ability transfer of the tested compound were expressed as molar equivalents of the reference compound per one mol of the tested compound using the formula: % of control activity=sample absorbance/reference absorbance×100 In the Reducing Power (RP) assay, the tested compounds reduce ferric ions from potassium ferricyanide, forming ferrocyanide, which produces a blue complex. The protocol used is an adaptation of previously reported methodologies. […] The tubes were sealed and incubated for 20 min in a water bath at 50 °C. […] Subsequently, 250 µL of the resulting solutions were mixed with 140 µL of FeCl3 solution (0.1% w/v) and 1000 µL of distilled water, and the absorbance of the resulting solutions was measured at λ = 695 nm.

[6] = Cell viability (resazurin) on A549; format: cell-based; settings: human, A549 cells; for IC50 at 24 h: A549, 24 h, read-out: 24 h Exposure IC50 (cytotoxicity); for IC50 at 48 h: A549, 48 h, read-out: 48 h Exposure IC50 (cytotoxicity)
Description: as §1, §2

[7] = Ferric Reducing Antioxidant Potential (FRAP) assay; settings: molar equivalents of reference compound
Description: The results of the evaluation of the electron ability transfer of the tested compound were expressed as molar equivalents of the reference compound per one mol of the tested compound using the formula: % of control activity=sample absorbance/reference absorbance×100 The Ferric Reducing Antioxidant Potential (FRAP) assay measures the ability of an antioxidant to transfer an electron to Fe^3+, converting it to Fe^2+. […] The solutions were thoroughly mixed in the dark, and their absorbance was measured spectrophotometrically at λ = 593 nm.

Row | SMILES | IC50 [1] | fold higher activity than the reference compounds in the DPPH^• scavenging assay ([1]; compared to ascorbic acid and Trolox) | IC50 at 24 h [2] | IC50 at 48 h [2] | effect on ARPE-19 cell viability (ARPE-19 cells) | % of ferrous ions chelation ([3]; 50 nM) | % of ferrous ions chelation ([3]; 100 nM) | % of ferrous ions chelation ([3]; 150 nM) | % of ferrous ions chelation ([3]; 175 nM) | % of ferrous ions chelation ([3]; 200 nM) | TAC Eq Ascorbic Acid [4] | RP Eq Ascorbic Acid [5] | RP Eq Trolox [5] | IC50 at 24 h [6] | IC50 at 48 h [6] | FRAP Eq Trolox [7] | viability at 24 h, 12.5 µM ([2]; ARPE-19, 24-h exposure, 12.5 µM, read-out: cell viability (% of control))
1 | C/C=C/C=N/Nc1nc(-c2ccc(O)c(O)c2)cs1.Cl [Compound 5a, 4-(2-(2-((1E,2E)-but-2-en-1-ylidene)hydrazineyl)thiazol-4-yl)benzene-1,2-diol hydrochloride] | 9.8 µM | up to 5 fold | 90.1 µM | 92.7 µM | slight proliferative effect | − (less than 5% chelation activity) | − (less than 5% chelation activity) | − (less than 5% chelation activity) | − (less than 5% chelation activity) | − (less than 5% chelation activity) | 2.82 Eq Ascorbic Acid | 2.55 Eq Ascorbic Acid | 2.12 Eq Trolox | 147 µM | 109 µM | 1.49 Eq Trolox | –
2 | CC1=C(/C=C/C(C)=N/Nc2nc(-c3ccc(O)c(O)c3)cs2)C(C)(C)CCC1.Cl [Compound 5b, 4-(2-(2-((2E,3E)-4-(2,6,6-trimethylcyclohex-1-en-1-yl)but-3-en-2-ylidene) hydrazineyl)thiazol-4-yl)benzene-1,2-diol hydrochloride] | 18.4 µM | – | 31.5 µM | 52.1 µM | – | − (less than 5% chelation activity) | − (less than 5% chelation activity) | − (less than 5% chelation activity) | − (less than 5% chelation activity) | − (less than 5% chelation activity) | 2.56 Eq Ascorbic Acid | 1.90 Eq Ascorbic Acid | 1.58 Eq Trolox | 167 µM | 39.6 µM | 1.39 Eq Trolox | 63.5%
